Patent US20230278972A1, “SUBSTITUTED HALOALKYL SULFONANILIDE HERBICIDES” (FMC Corporation, priority 2020, published 2023)

Assays:
Assay type in all cases: in vivo
rice (Oryza sativa) = test: Test B1 flooded paddy test, rice; conditions: 250 g ai/ha, Flood, applied to paddy water, 2-leaf stage, visually evaluated after 10 to 14 days
Excerpt: (§1) A dash (-) response means no test result.

[1] = tested on: barnyardgrass (Echinochloa crus-galli); test: Test B1 flooded paddy test, barnyardgrass; conditions: 250 g ai/ha, Flood, applied to paddy water, 2-leaf stage, visually evaluated after 10 to 14 days
Excerpt: as §1

[2] = tested on: wheat (Triticum aestivum); test: Test A1 postemergence, wheat; conditions: Postemergence
Procedure, shortened: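 Plants grown in pots of loam/sand mix; preemergence = soil-directed spray on seeded pots, postemergence = spray at 1–2 leaves, height 2–10 cm; test chemicals formulated in non-phytotoxic solvent with surfactant.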

[3] = tested on: Foxtail, Giant (giant foxtail, Setaria faberi); test: Test A1 preemergence, Foxtail, Giant
Procedure, shortened: (§2)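 Both timings started from seed in a loam-sand blend. Preemergence pots got a directed soil application immediately; postemergence pots were sprayed when seedlings had one or two leaves and stood 2–10 cm. Each compound was prepared in a non-phytotoxic solvent plus surfactant.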

[4] = tested on: Oat, Wild (wild oat, Avena fatua); test: Test A1 preemergence, Oat, Wild
Procedure, shortened: as §2

kochia (Bassia scoparia) = test: Test A1 preemergence, kochia
Procedure, shortened: as §2

[5] = tested on: ducksalad (Heteranthera limosa); test: Test B1 flooded paddy test, ducksalad; conditions: 250 g ai/ha, Flood, applied to paddy water, 2-leaf stage, visually evaluated after 10 to 14 days
Excerpt: as §1

[6] = 31 g ai/ha, 0 to 100 scale (0 no effect, 100 complete control), 10 days
[7] = 31 g ai/ha, 0 to 100 scale (0 no effect, 100 complete control)
[8] = 125 g ai/ha, 0 to 100 scale, 0 no effect, 100 complete control

C#CCN(C)C(=O)c1cc(NS(=O)(=O)C(F)(F)F)c(Cl)c(F)c1C [Compound 337]
Plant response rating, Rice (0 to 100 scale, 0 is no effect, 100 is complete control) (rice (Oryza sativa)): 25
Plant response rating, Barnyardgrass (0 to 100 scale, 0 is no effect, 100 is complete control) [1]: 0
Plant response rating, Wheat [2, 6]: 0
Plant response rating, Wheat ([2]; 125 g ai/ha, 0 to 100 scale): 30
Plant response rating, Foxtail, Giant [3, 7]: 20
Plant response rating, Foxtail, Giant [3, 8]: 100
Plant response rating, Oat, Wild [4, 7]: 0
Plant response rating, Oat, Wild [4, 8]: 20
Plant response rating, Kochia (kochia (Bassia scoparia); [7]): 20
Plant response rating, Kochia (kochia (Bassia scoparia); [8]): 50
Plant response rating, Ducksalad (0 to 100 scale, 0 is no effect, 100 is complete control) [5]: 65

COCC1CC(c2cc(N(COC(=O)C(C)(C)C)S(=O)(=O)C(F)(F)F)c(C)cc2C)=NO1 (centres unmarked) [Compound 338]
Plant response rating, Rice (0 to 100 scale, 0 is no effect, 100 is complete control) (rice (Oryza sativa)): 20
Plant response rating, Barnyardgrass (0 to 100 scale, 0 is no effect, 100 is complete control) [1]: 95
Plant response rating, Wheat [2, 6]: 20
Plant response rating, Wheat ([2]; 125 g ai/ha, 0 to 100 scale): 70
Plant response rating, Foxtail, Giant [3, 7]: 10
Plant response rating, Foxtail, Giant [3, 8]: 90
Plant response rating, Oat, Wild [4, 7]: 0
Plant response rating, Oat, Wild [4, 8]: 0
Plant response rating, Kochia (kochia (Bassia scoparia); [7]): 0
Plant response rating, Kochia (kochia (Bassia scoparia); [8]): 10
Plant response rating, Ducksalad (0 to 100 scale, 0 is no effect, 100 is complete control) [5]: 40

CCOC1CC(c2cc(N(COC(=O)C(C)(C)C)S(=O)(=O)C(F)(F)F)c(C)cc2C)=NO1 (centres unmarked) [Compound 339]
Plant response rating, Rice (0 to 100 scale, 0 is no effect, 100 is complete control) (rice (Oryza sativa)): 20
Plant response rating, Barnyardgrass (0 to 100 scale, 0 is no effect, 100 is complete control) [1]: 95
Plant response rating, Wheat [2, 6]: 0
Plant response rating, Wheat ([2]; 125 g ai/ha, 0 to 100 scale): 40
Plant response rating, Foxtail, Giant [3, 7]: 0
Plant response rating, Foxtail, Giant [3, 8]: 20
Plant response rating, Oat, Wild [4, 7]: 0
Plant response rating, Oat, Wild [4, 8]: 0
Plant response rating, Kochia (kochia (Bassia scoparia); [7]): 0
Plant response rating, Kochia (kochia (Bassia scoparia); [8]): 90
Plant response rating, Ducksalad (0 to 100 scale, 0 is no effect, 100 is complete control) [5]: 65

Cc1cc(C)c(C2=NOC3(C)CCCC23)cc1NS(=O)(=O)C(F)(F)F (centres unmarked) [Compound 340]
Plant response rating, Rice (0 to 100 scale, 0 is no effect, 100 is complete control) (rice (Oryza sativa)): 10
Plant response rating, Barnyardgrass (0 to 100 scale, 0 is no effect, 100 is complete control) [1]: 85
Plant response rating, Wheat [2, 6]: 50
Plant response rating, Wheat ([2]; 125 g ai/ha, 0 to 100 scale): 70
Plant response rating, Foxtail, Giant [3, 7]: 50
Plant response rating, Foxtail, Giant [3, 8]: 100
Plant response rating, Oat, Wild [4, 7]: 0
Plant response rating, Oat, Wild [4, 8]: 90
Plant response rating, Kochia (kochia (Bassia scoparia); [8]): 60
Plant response rating, Ducksalad (0 to 100 scale, 0 is no effect, 100 is complete control) [5]: 45

Cc1cc(C)c(N(COC(=O)C(C)(C)C)S(=O)(=O)C(F)(F)F)cc1C1=NOC2(C)CCCC12 (centres unmarked) [Compound 341]
Plant response rating, Rice (0 to 100 scale, 0 is no effect, 100 is complete control) (rice (Oryza sativa)): 55
Plant response rating, Barnyardgrass (0 to 100 scale, 0 is no effect, 100 is complete control) [1]: 95
Plant response rating, Wheat [2, 6]: 0
Plant response rating, Wheat ([2]; 125 g ai/ha, 0 to 100 scale): 70
Plant response rating, Foxtail, Giant [3, 7]: 0
Plant response rating, Foxtail, Giant [3, 8]: 50
Plant response rating, Oat, Wild [4, 7]: 0
Plant response rating, Oat, Wild [4, 8]: 0
Plant response rating, Kochia (kochia (Bassia scoparia); [7]): 0
Plant response rating, Kochia (kochia (Bassia scoparia); [8]): 40
Plant response rating, Ducksalad (0 to 100 scale, 0 is no effect, 100 is complete control) [5]: 45

CCC1ON=C(c2cc(N(COC(=O)C(C)(C)C)S(=O)(=O)C(F)(F)F)c(C)cc2C)C1CC (centres unmarked) [Compound 344]
Plant response rating, Rice (0 to 100 scale, 0 is no effect, 100 is complete control) (rice (Oryza sativa)): 40
Plant response rating, Barnyardgrass (0 to 100 scale, 0 is no effect, 100 is complete control) [1]: 95
Plant response rating, Wheat [2, 6]: 40
Plant response rating, Wheat ([2]; 125 g ai/ha, 0 to 100 scale): 70
Plant response rating, Foxtail, Giant [3, 7]: 30
Plant response rating, Foxtail, Giant [3, 8]: 100
Plant response rating, Oat, Wild [4, 7]: 0
Plant response rating, Oat, Wild [4, 8]: 10
Plant response rating, Kochia (kochia (Bassia scoparia); [7]): 0
Plant response rating, Kochia (kochia (Bassia scoparia); [8]): 30
Plant response rating, Ducksalad (0 to 100 scale, 0 is no effect, 100 is complete control) [5]: 90
